Experimental data as given in article PMC12036814 (Angewandte Chemie (International Ed. in English), 2025).

Key:
PDL-hTERT cells = assay: Live/dead staining and microscopy (morphology); type: cell-based; design: dose or concentration left out as unconfirmed; conditions: […] µM, 7 days
Procedure: For PDL-hTERT cells (9 x 10^4 cells /well) were plated in each well of 6 -well plates (Greiner Bio-One,
Frickenhausen, Germany) and incubated for 3 days at 37 °C and 5% CO2. Afterwards, cells were treated
Afterwards, the cells were stained with 1 µM calcein
acetoxymethyl (calcein AM) and 10 µM propidium iodide, diluted from 100 µM and 1 mM stock
solutions respectively. The diluent was given to the cells in a mixture of 1:1 PBS to culture medium.
Calcein AM is cell permeable and in living cells is converted to fluorescent calcein by intracellular
estarases, thus labelling the cells in green colour. Propidium iodide is a fluorescent dye that can only
traverse cells with damaged membranes, thus marking dead cells in red colour (to note: dead cells
frequently detach during the staining procedure). Last, cells were imaged on day 1, 4, and 7 in phase -
contrast, FITC (green) and Cy3 (red) fluorescent channels using Zeiss AxioVert.A1 microscope equipped
with AxioCam ICc1 camera (Carl Zeiss, Göttingen, Germany). Each image was automatically processed
using the “Min/Max” option provided by the micriscope software Zen 2.3 lite (Carl Zeiss). The
experiment was repeated three independent times (n = 3), each performed in duplicate wells for
control and Cipro-containing groups.

SCARB1 = target: T1, SCARB1 (Homo sapiens, UniProt Q8WTV0); assay: Microscale thermophoresis (MST) binding; conditions: aggregation/precipitation at high compound concentrations
T1 construct: purchased Hölzel Biotech SC1-H82E5
T1 sequence (Q8WTV0 1-552): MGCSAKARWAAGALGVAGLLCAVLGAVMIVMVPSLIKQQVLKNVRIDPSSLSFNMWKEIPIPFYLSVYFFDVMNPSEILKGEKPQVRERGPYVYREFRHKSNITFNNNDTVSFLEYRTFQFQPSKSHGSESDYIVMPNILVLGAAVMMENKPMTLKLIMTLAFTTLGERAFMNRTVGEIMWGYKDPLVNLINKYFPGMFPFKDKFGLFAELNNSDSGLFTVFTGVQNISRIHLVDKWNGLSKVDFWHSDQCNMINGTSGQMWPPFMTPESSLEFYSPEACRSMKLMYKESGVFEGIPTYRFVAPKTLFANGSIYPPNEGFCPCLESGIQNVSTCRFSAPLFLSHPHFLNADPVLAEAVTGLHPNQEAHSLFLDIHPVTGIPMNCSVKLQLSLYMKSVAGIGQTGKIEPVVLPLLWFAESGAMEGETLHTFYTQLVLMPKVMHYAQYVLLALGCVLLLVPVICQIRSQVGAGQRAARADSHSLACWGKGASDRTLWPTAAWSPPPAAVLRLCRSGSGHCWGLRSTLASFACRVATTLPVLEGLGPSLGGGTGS
Procedure: reaction was terminated by addition of 800 μL EtOAc+0.5% AcOH, 300 μL H2O and 100 μL internal standard (13,14-dihydro-15-ketoprostaglandin -d4, 300 pmol/sample, Cayman Chemical, Ann Arbor, USA, Cat# 10010606). Of the organic phase 600 μL was transferred into a fresh Eppendorf tube and the solvent removed in a SpeedVac. The residue was dissolved in 100 μL acetonitrile/ H2O (1:1) and measured with LC-MS/MS. Gradient: Solvent A = H2O + 0.1% formic acid, solvent B = acetonitrile + 0.5% formic acid, flow rate = 0 .4 mL/min, run length 6 min, gradient = 0 min 30% B, 1 min 30% B, 2 min 31.5% B, 2.1 min 95% B, 4 min 95% B, 4.1 min 30% B, 6 min 30% B. MS settings: Capillary = 3.0 kV, sampling cone = […], extraction cone […], source temperature = 100 °C, desolvat ion temperature = 350 °C, cone gas flow = 50.0 L/h, desolvation gas flow = 650.0 L/h, scan time = 0.250 s, inter-scan time = 0.020 s, mass range = 100 -800 Da. Masses of 15 -ketoprostaglandin (349.2 Da, collision energy = 21.0 eV), 13,14 -dihydro-15-ketoprostaglandin (351.2 Da, collision energy = 18.0 eV) and 13,14-dihydro-15-ketoprostaglandin (355.2 Da, collision energy = 10.0 eV) were set for MRM. The areas under the curve (AUC) were used to quantify 15 -keto-PGE2 and 13,14 -dihydro-15-keto-PGE2 levels by determining peak areas in relation to internal standard […]. The experiment was […]
Microscale thermophoresis (MST) was performed as follows: Monolith His -Tag Labeling Kit RED -tris-NTA 2nd Generation (NanoTemper Technologies, Munich, Germany, Cat# MO -L018) was used for KD determination as recommended by the purchaser. Briefly, SCARB1 ( Hölzel Biotech, Cologne, Germany, Cat# SC1-H82E5) concentration (50 nM) was adjusted in assay buffer and labelled by the RED -tris-NTA dye (100 nM). This mixture was added to compound dilution series (c = 1 mM to 30 nM) and measured using Monolith NT.115 (NanoTemper Technologies, Munich, Germany ). The experiment was performed once and analysed with the MO Affinity Analysis software (NanoTemper).
NUDT1 target validation efforts:
Recombinant NUDT1 expression & purification […]

[1] = test system: periodontal ligament cell line (PDL‐hTERT); assay: Whole proteome analysis and pathway analysis of treated PDL-hTERT cells; type: cell-based, human; design: dose or concentration left out as unconfirmed; conditions: […] μM, 3 days, versus vehicle
[2] = test system: HEK‐293 and PDL‐hTERT cells; assay: MTT assay, relative metabolic activity after 3 days; type: cell-based, human; conditions: 3 days of treatment
Procedure: Methods and Experimental Procedures
(Alfa Aesar, Haverhill, USA, Cat# J66943 ) stocks were prepared in sterile -filtered 0.1 N HCl to a
maximum concentration of 50 mM. HCl was used as vehicle control, diluted in culture medium, and
Cell culture experiments were performed in HEK 293, A549 or PDL-hTERT cells1 cultured in DMEM high
glucose medium supplemented with 10% FCS and 2 mM glutamine ( all, Sigma-Aldrich, St. Louis, USA,
Cat# G7513) in 5% CO2 atmosphere at 37 °C in Heracell 150i incubators (Thermo Fisher Scientific,
Waltham, USA). The human periodontal ligament (PDL -hTERT) cell line was provided by Prof. Denitsa
Docheva. During standard cell passaging accutase (Sigma-Aldrich) or 2,5x trypsin/0.5% EDTA in PBS
(Capricorn Scientific, Ebsdorfergrund, Germany) was used for cell detachment. Cell dishes in various
sizes (10 cm, 15 cm) and flasks (T75, T175) were used for cultivation (Sarstedt, Nümbrecht, Germany,
purchased from Thermo Fisher Scientific, Waltham, USA, Cat# 130184, 130188.
HEK or PDL-hTERT cells (1,5 x 10^3 cells/well) were seeded into 96 -well plates and grown for 24 h. […]
removed by suction and the formed formazan crystals dissolved in 200 μL DMSO. The read-out was
performed with an Infinite M200 Pro microplate reader (Tecan, Männedorf, Switzerland) at 570 nm
and background was subtracted at 630 nm. The absorbance values were normalized to DMSO/0.1 N […]

With `O=C(O)c1cn(C2CC2)c2cc(N3CCNCC3)c(F)cc2c1=O` [Ciprofloxacin] the cell morphology (PDL-hTERT cells) was “cell rounding”, the “binding to SCARB1” value (SCARB1) was “no binding affinity could be determined” and the “regulation of ETC complex I and IV subunits” value [1] was “significant down‐regulation of complex I (blue) and complex IV (green) subunits of the ETC”. The “approximate apparent IC50 (metabolic activity, MTT)” value [2] was “well above the reported plasma concentrations”.
